Results as given in patent publication US10350271B2, “Lipidated peptides for lowering blood glucose” (USTAV ORGANICKE CHEMIE A BIOCHEMIE AKADEMIE VED CR, V.V.I., priority 2014, dated 2019).
Square brackets hold non-standard residues; d marks the D form. Peptide text beside a SMILES is read from it. * marks the point of attachment. Phe(3,4-Cl2) = N[C@@H](Cc1ccc(Cl)c(Cl)c1)C(=O)O; Palmitoyl = CCCCCCCCCCCCCCCC(=O)*; Nle = CCCC[C@H](N)C(=O)O; Octanoyl = CCCCCCCC(=O)*

How the values were obtained:
[1] = target: T1, rat PrRP receptor (Rattus norvegicus, UniProt Q64121); test: Competitive binding in RC-4B/C rat pituitary cells (125I-rat PrRP31); conditions: for Ki: displacement of 125I-rat PrRP31, read-out: Ki, RC-4B/C rat pituitary cells ^25I-rat PrRP31; for % of PrRP31, RC-4B/C rat pituitary cells: affinity relative to PrRP31
T1 construct: host or cells: RC-4B/C rat pituitary cell line
T1 sequence (Q64121 1-370): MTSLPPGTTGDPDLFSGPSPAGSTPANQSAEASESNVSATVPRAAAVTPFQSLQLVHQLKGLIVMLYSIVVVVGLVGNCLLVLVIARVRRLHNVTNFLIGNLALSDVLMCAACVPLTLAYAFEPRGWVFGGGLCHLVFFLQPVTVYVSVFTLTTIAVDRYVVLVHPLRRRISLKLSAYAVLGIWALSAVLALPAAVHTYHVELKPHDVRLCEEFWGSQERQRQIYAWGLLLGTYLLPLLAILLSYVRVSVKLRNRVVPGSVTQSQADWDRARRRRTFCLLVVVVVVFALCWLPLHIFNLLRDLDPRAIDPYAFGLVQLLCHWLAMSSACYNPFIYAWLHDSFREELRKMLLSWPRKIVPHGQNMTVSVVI
In short: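 Intact rat pituitary RC-4B/C cells incubated 60 min at room temperature with […] rat 125I-PrRP31 and unlabeled analog (10^−11 to 10^−4 mol·l^−1) in HEPES pH 7.4 buffer. Cell-bound radioactivity γ-counted after NaOH lysis; one-site competition fit.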

[2] = target: T2, human PrRP receptor GPR10 (Homo sapiens, UniProt P49683); test: Competitive binding in CHO cells transfected with human GPR10 (human 125I-PrRP31); conditions: for Ki: CHO cells, human 125I-PrRP31, read-out: Ki, GPR10 human receptor transfected in CHO cells; for % of PrRP31, GPR10 human receptor transfected in CHO cells: affinity relative to PrRP31
T2 construct: host or cells: CHO cells
T2 sequence (P49683 1-370): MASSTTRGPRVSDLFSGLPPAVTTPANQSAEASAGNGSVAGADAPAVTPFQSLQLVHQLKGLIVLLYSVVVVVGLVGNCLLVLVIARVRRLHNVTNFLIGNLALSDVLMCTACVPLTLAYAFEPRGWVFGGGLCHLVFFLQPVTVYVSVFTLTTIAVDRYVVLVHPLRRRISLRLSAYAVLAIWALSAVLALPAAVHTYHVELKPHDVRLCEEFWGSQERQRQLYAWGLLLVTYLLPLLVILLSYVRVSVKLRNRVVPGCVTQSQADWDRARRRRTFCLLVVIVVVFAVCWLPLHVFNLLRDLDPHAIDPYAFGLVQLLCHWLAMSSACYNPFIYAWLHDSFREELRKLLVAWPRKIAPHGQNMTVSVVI
In short: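 GPR10-transfected CHO cells (40-80 thousand/well) incubated 60 min at room temperature with 5×10^-11 mol·l^-1 human 125I-PrRP31 and unlabeled analog at 10^-11 to 10^-4 mol·l^-1 in Tris binding buffer pH 7.4. Cells solubilized in 0.1 mol/l NaOH, γ-counted; one-site nonlinear regression fit.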

[3] = system: C57BL/6 mice; test: Food intake in fasted mice after SC injection; type: in vivo; conditions: 5 mg/kg SC, 45 min after injection
Method: NMRI mice, C57BL/6 mice, and Wistar rats (AnLab, Prague, Czech Republic) were housed in a temperature of 23° C. and a daily cycle of 12 h light and dark (light from 6:00). They were given ad libitum water and a standard chow diet that contained 25, 9 and 66% of calories of protein, fat and carbohydrate respectively. Energy content of the feed was 3.4 kcal/g (St-1, Mlýn Kocanda, Czech Republic). Db/db mice and their controls (C57BL/6 background) were obtained from Taconic (Denmark), housed under the same conditions as described above, and fed by Altromin (Taconic, Denmark). ZDF-Lepr^fa/Crl, diabetic fa/fa male rats were obtained from Charles River (France), housed under same conditions as described above, and fed with a Purina 5008 diet (IPS Product Supplies Limited, UK). All experiments followed the ethical guidelines for animal experiments and the law of the Czech Republic Nr. 246/1992.
In experiments with C57BL/6 mice or Wistar rats, food intake was measured with overnight fasted animals in individual cages. Food was withdrawn 17 hours prior to injection of lipidated analog of prolactin releasing peptide (PrRP); free access to water was maintained. The administration of either saline, PrRP, or lipidated analogs was performed by SC injection at doses of 1-10 mg/kg (which corresponded to a volume of 0.2 ml/mouse and 0.1 ml/100 g weight of rat). Fifteen minutes after the lipidated analog of prolactin releasing peptide (PrRP) administration, the mice were given pre-weighed food. The food was then weighed every 30 minutes for 5-10 hours. The administration of each dose was performed at least twice, and each group of mice consisted of at least 6 mice.

Compound: CCCCCCCCCCCCCCCC(=O)N[C@@H](CO)C(=O)N[C@@H](CCCNC(=N)N)C(=O)N[C@@H](C)C(=O)N[C@@H](Cc1c[nH]cn1)C(=O)N[C@@H](CCC(N)=O)C(=O)N[C@@H](Cc1c[nH]cn1)C(=O)N[C@@H](CO)C(=O)N[C@@H](CCCC)C(=O)N[C@@H](CCC(=O)O)C(=O)N[C@H](C(=O)N[C@@H](CCCNC(=N)N)C(=O)N[C@H](C(=O)N1CCC[C@H]1C(=O)N[C@@H](CC(=O)O)C(=O)N[C@H](C(=O)N[C@@H](CC(N)=O)C(=O)N1CCC[C@H]1C(=O)N[C@@H](C)C(=O)N[C@@H](Cc1c[nH]c2ccccc12)C(=O)N[C@@H](Cc1ccc(O)cc1)C(=O)N[C@H](C(=O)NCC(=O)N[C@@H](CCCNC(=N)N)C(=O)NCC(=O)N[C@H](C(=O)N[C@@H](CCCNC(=N)N)C(=O)N1CCC[C@H]1C(=O)N[C@H](C(=O)NCC(=O)N[C@@H](CCCNC(=N)N)C(=O)N[C@@H](Cc1ccc(Cl)c(Cl)c1)C(N)=O)C(C)C)[C@@H](C)CC)[C@@H](C)O)[C@@H](C)CC)[C@@H](C)O)[C@@H](C)O [Analog 15] (Palmitoyl-SRAHQHS[Nle]ETRTPDINPAWYTGRGIRPVGR[Phe(3,4-Cl2)]-NH2)
- Ki ([1]; RC-4B/C cells): 1.3 ± 0.29 nM
- % of PrRP31, RC-4B/C rat pituitary cells [1]: 379%
- Ki [2]: 1.05 ± 0.41 nM
- % of PrRP31, GPR10 human receptor transfected in CHO cells [2]: 370%
- Food intake in mice % of saline-treated group [3]: 5%

Compound: CCCC[C@H](NC(=O)[C@H](CO)NC(=O)[C@H](Cc1c[nH]cn1)NC(=O)[C@H](CCC(N)=O)NC(=O)[C@H](Cc1c[nH]cn1)NC(=O)[C@H](C)NC(=O)[C@H](CCCNC(=N)N)NC(=O)[C@@H](N)CO)C(=O)N[C@@H](CCC(=O)O)C(=O)N[C@H](C(=O)N[C@@H](CCCNC(=N)N)C(=O)N[C@H](C(=O)N1CCC[C@H]1C(=O)N[C@@H](CC(=O)O)C(=O)N[C@H](C(=O)N[C@@H](CC(N)=O)C(=O)N1CCC[C@H]1C(=O)N[C@@H](C)C(=O)N[C@@H](Cc1c[nH]c2ccccc12)C(=O)N[C@@H](Cc1ccc(O)cc1)C(=O)N[C@H](C(=O)NCC(=O)N[C@@H](CCCNC(=N)N)C(=O)NCC(=O)N[C@H](C(=O)N[C@@H](CCCNC(=N)N)C(=O)N1CCC[C@H]1C(=O)N[C@H](C(=O)NCC(=O)N[C@@H](CCCNC(=N)N)C(=O)N[C@@H](Cc1ccccc1)C(N)=O)C(C)C)[C@@H](C)CC)[C@@H](C)O)[C@@H](C)CC)[C@@H](C)O)[C@@H](C)O [Analog 3] (H-SRAHQHS[Nle]ETRTPDINPAWYTGRGIRPVGRF-NH2)
- % of PrRP31, RC-4B/C rat pituitary cells [1]: 385%
- % of PrRP31, GPR10 human receptor transfected in CHO cells [2]: 203%
- Food intake in mice % of saline-treated group [3]: 100%

Compound: CCCCCCCC(=O)N[C@H](C(=O)N1CCC[C@H]1C(=O)N[C@@H](CC(=O)O)C(=O)N[C@H](C(=O)N[C@@H](CC(N)=O)C(=O)N1CCC[C@H]1C(=O)N[C@@H](C)C(=O)N[C@@H](Cc1c[nH]c2ccccc12)C(=O)N[C@@H](Cc1ccc(O)cc1)C(=O)N[C@@H](C)C(=O)N[C@@H](CO)C(=O)N[C@@H](CCCNC(=N)N)C(=O)NCC(=O)N[C@H](C(=O)N[C@@H](CCCNC(=N)N)C(=O)N1CCC[C@H]1C(=O)N[C@H](C(=O)NCC(=O)N[C@@H](CCCNC(=N)N)C(=O)N[C@@H](Cc1ccccc1)C(N)=O)C(C)C)[C@@H](C)CC)[C@@H](C)CC)[C@@H](C)O [Analog 39] (Octanoyl-TPDINPAWYASRGIRPVGRF-NH2)
- Ki ([1]; RC-4B/C cells): 0.93 ± 0.23 nM
- Displacement of rat 125I-PrRP binding ([1]; RC-4B/C cells, rat PrRP receptor): nmol·l^−1 range
- % of PrRP31, RC-4B/C rat pituitary cells [1]: 530%
- Ki [2]: 1.94 ± 0.32 nM
- % of PrRP31, GPR10 human receptor transfected in CHO cells [2]: 201%
- Displacement of human 125I-PrRP binding ([2]; human GPR10 receptor): nmol·l^−1 range
- Food intake in mice % of saline-treated group [3]: 100%
